The record followed here is patent publication US20230085307A1, “PYRIDAZINONE COMPOUND AND HERBICIDE” (NISSAN CHEMICAL CORPORATION, priority 2019, published 2023).

The first test deals with velvetleaf. Description: Test Example 4: herbicidal effect by soil treatment (Table 19, symbol M). The class given is in vivo, velvetleaf (Abutilon theophrasti). Particulars: amount of applied herbicide 320 g/ha. The method in brief: (§1)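 Emulsion of test compound, water-diluted to predetermined amount, sprayed on soil after sowing (seed depth ~1.5 cm, sterilized diluvial soil). Greenhouse, 25–30° C. Effect graded at three weeks post-spray.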
Turning to `COc1cc(F)ccc1-c1sc2cc(Cl)ccc2c1-c1c(O)c(C)nn(C)c1=O` [3-043], the “M: velvetleaf, herbicidal effect grade” value was 3 (Herbicidal rate of 40% or more and less than 70%).
Same read-out and setting: the value for `CCCOc1ccc2c(-c3c(O)c(C)nn(C)c3=O)c(-c3ccccc3OC)sc2c1` [3-099] was 3 (Herbicidal rate of 40% or more and less than 70%).

A further test relates to barnyard grass. Put plainly: Test Example 3: herbicidal effect by foliage application, Wagner pot (Table 18, symbol H). Particulars: 320 g/ha. The class given is in vivo, barnyard grass (Echinochloa crus-galli). The method, boiled down:
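Plants were sown in alluvial soil held under 0.1–0.5 cm standing water and grown 14 days in a greenhouse at 25–30 °C. An emulsifiable formulation, water-diluted to the set dose, was then sprayed onto the foliage, and effects were scored three weeks later using previously defined criteria.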
For the compound `COc1cc(F)ccc1-c1sc2cc(Cl)ccc2c1-c1c(O)c(C)nn(C)c1=O` [3-043], the “herbicidal effect on barnyard grass (H)” value is reported as 5 (Herbicidal rate of 90% or more (almost completely withered)).
Still for that read-out and setting: the value for `CCCOc1ccc2c(-c3c(O)c(C)nn(C)c3=O)c(-c3ccccc3OC)sc2c1` [3-099] was 5 (Herbicidal rate of 90% or more (almost completely withered)).

The next test concerns blackgrass. Put plainly: Test Example 5: herbicidal effect by foliage application, plastic box (Table 20, symbol J). Particulars: foliage application, 320 g/ha, three weeks after application. The class given is in vivo, blackgrass (Alopecurus myosuroides). The method, boiled down:
(§2)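 Post-emergence foliar test in sterilized diluvial soil. Compound applied as water-diluted emulsion at a predetermined rate to 14-day-old plants; evaluation at three weeks.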
Take `COc1cc(F)ccc1-c1sc2cc(Cl)ccc2c1-c1c(O)c(C)nn(C)c1=O` [3-043]: the “J: blackgrass, herbicidal effect grade” value is 5 (Herbicidal rate of 90% or more (almost completely withered)).
Regarding `CCCOc1ccc2c(-c3c(O)c(C)nn(C)c3=O)c(-c3ccccc3OC)sc2c1` [3-099], the “J: blackgrass, herbicidal effect grade” value is reported as 5 (Herbicidal rate of 90% or more (almost completely withered)).

For a further test, the system named is velvetleaf. Description: Test Example 5: herbicidal effect by foliage application, plastic box (Table 20, symbol M). The class given is in vivo, velvetleaf (Abutilon theophrasti). Particulars: foliage application, 320 g/ha, three weeks after application. The method, boiled down: as §2
Consider `COc1cc(F)ccc1-c1sc2cc(Cl)ccc2c1-c1c(O)c(C)nn(C)c1=O` [3-043], for which the “M: velvetleaf, herbicidal effect grade” value is on record as 5 (Herbicidal rate of 90% or more (almost completely withered)).
On the same count and under the same terms, the value for `CCCOc1ccc2c(-c3c(O)c(C)nn(C)c3=O)c(-c3ccccc3OC)sc2c1` [3-099] was 5 (Herbicidal rate of 90% or more (almost completely withered)).

A further test concerns green foxtail. Put plainly: Test Example 5: herbicidal effect by foliage application, plastic box (Table 20, symbol G). The class given is in vivo, green foxtail (Setaria viridis). Particulars: foliage application, 320 g/ha, three weeks after application. The method, boiled down:
as §2
For the compound `COc1cc(F)ccc1-c1sc2cc(Cl)ccc2c1-c1c(O)c(C)nn(C)c1=O` [3-043], the “G: green foxtail, herbicidal effect grade” value is recorded as 5 (Herbicidal rate of 90% or more (almost completely withered)).
As for `CCCOc1ccc2c(-c3c(O)c(C)nn(C)c3=O)c(-c3ccccc3OC)sc2c1` [3-099], the “G: green foxtail, herbicidal effect grade” value is recorded as 5 (Herbicidal rate of 90% or more (almost completely withered)).

The subject of another test is late watergrass. Description: Test Example 1: herbicidal activity, application before weed generation under submerged conditions (Table 16, symbol A). The format is in vivo, late watergrass (Echinochloa oryzicola). The settings on record: amount of applied herbicide 320 g/ha. The method, boiled down: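 Emulsion formulation, water-diluted to set dose, was put onto the flooded surface (4 cm depth, alluvial soil) the same day weeds were sown and 2.5-leaf rice transplanted. After 3 weeks at 25-30 °C under glass, each species was rated 0 (≤5% kill) to 5 (≥90% kill).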
For the compound `COc1cc(F)ccc1-c1sc2cc(Cl)ccc2c1-c1c(O)c(C)nn(C)c1=O` [3-043], the “Herbicidal effect, A: late watergrass” value is recorded as 0 (Herbicidal rate of 5% or less (almost no effect)).
For the compound `CCCOc1ccc2c(-c3c(O)c(C)nn(C)c3=O)c(-c3ccccc3OC)sc2c1` [3-099], the “Herbicidal effect, A: late watergrass” value is recorded as 5 (Herbicidal rate of 90% or more (almost completely withered)).

The test system of another test is chickweed. Put plainly: Test Example 5: herbicidal effect by foliage application, plastic box (Table 20, symbol P). The format is in vivo, common chickweed (Stellaria media). Particulars: foliage application, 320 g/ha, three weeks after application. The method, boiled down:
as §2
For the compound `COc1cc(F)ccc1-c1sc2cc(Cl)ccc2c1-c1c(O)c(C)nn(C)c1=O` [3-043], the “P: chickweed, herbicidal effect grade” value is on record as 5 (Herbicidal rate of 90% or more (almost completely withered)).
On the same count and under the same terms, as for `CCCOc1ccc2c(-c3c(O)c(C)nn(C)c3=O)c(-c3ccccc3OC)sc2c1` [3-099], the figure is 5 (Herbicidal rate of 90% or more (almost completely withered)).

The test system of a further test is Italian ryegrass. Description: Test Example 5: herbicidal effect by foliage application, plastic box (Table 20, symbol K). Particulars: foliage application, 320 g/ha, three weeks after application. The format is in vivo, Italian ryegrass (Lolium multiflorum). The method in brief: as §2
As to `COc1cc(F)ccc1-c1sc2cc(Cl)ccc2c1-c1c(O)c(C)nn(C)c1=O` [3-043], the “K: Italian ryegrass, herbicidal effect grade” value was 2 (Herbicidal rate of 20% or more and less than 40%).
`CCCOc1ccc2c(-c3c(O)c(C)nn(C)c3=O)c(-c3ccccc3OC)sc2c1` [3-099]: the “K: Italian ryegrass, herbicidal effect grade” value was 5 (Herbicidal rate of 90% or more (almost completely withered)).

For another test, the system named is blackgrass. Description: Test Example 4: herbicidal effect by soil treatment (Table 19, symbol J). The format is in vivo, blackgrass (Alopecurus myosuroides). Particulars: amount of applied herbicide 320 g/ha. The method in brief:
as §1
`COc1cc(F)ccc1-c1sc2cc(Cl)ccc2c1-c1c(O)c(C)nn(C)c1=O` [3-043]: the “J: blackgrass, herbicidal effect grade” value was 3 (Herbicidal rate of 40% or more and less than 70%).
With `CCCOc1ccc2c(-c3c(O)c(C)nn(C)c3=O)c(-c3ccccc3OC)sc2c1` [3-099], the “J: blackgrass, herbicidal effect grade” value is 4 (Herbicidal rate of 70% or more and less than 90%).

Another test relates to oval-leafed pondweed. Put plainly: Test Example 2: herbicidal activity, application during weed generation under submerged conditions (Table 17, symbol C). The format is in vivo, oval-leafed pondweed (Monochoria vaginalis). The settings on record: AAH 320 g/ha; application during weed generation, submerged conditions. The method in brief:
(§3)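 In this pot test, flooded alluvial soil (water depth 4 cm) holds all three species sown as a mixture. Once seedlings have one to two leaves, the compound's emulsion, thinned with water to the intended dose, is poured on the water; grading follows after three weeks on the earlier criteria.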
As for `COc1cc(F)ccc1-c1sc2cc(Cl)ccc2c1-c1c(O)c(C)nn(C)c1=O` [3-043], the “herbicidal effect rating, C: oval-leafed pondweed” value is recorded as 0 (Herbicidal rate of 5% or less (almost no effect)).
With `CCCOc1ccc2c(-c3c(O)c(C)nn(C)c3=O)c(-c3ccccc3OC)sc2c1` [3-099], the “herbicidal effect rating, C: oval-leafed pondweed” value was 3 (Herbicidal rate of 40% or more and less than 70%).

Another test deals with barnyard grass. Put plainly: Test Example 4: herbicidal effect by soil treatment (Table 19, symbol H). The format is in vivo, barnyard grass (Echinochloa crus-galli). Particulars: amount of applied herbicide 320 g/ha. The method in brief: as §1
For `COc1cc(F)ccc1-c1sc2cc(Cl)ccc2c1-c1c(O)c(C)nn(C)c1=O` [3-043], the “H: barnyard grass, herbicidal effect grade” value was 4 (Herbicidal rate of 70% or more and less than 90%).
The same measure, in the same setting: as for `CCCOc1ccc2c(-c3c(O)c(C)nn(C)c3=O)c(-c3ccccc3OC)sc2c1` [3-099], the figure is 4 (Herbicidal rate of 70% or more and less than 90%).

Another test relates to lambsquarters. Description: Test Example 4: herbicidal effect by soil treatment (Table 19, symbol O). The format is in vivo, lambsquarters (Chenopodium album). Particulars: amount of applied herbicide 320 g/ha. The method in brief:
as §1
In the case of `COc1cc(F)ccc1-c1sc2cc(Cl)ccc2c1-c1c(O)c(C)nn(C)c1=O` [3-043], the “O: lambsquarters, herbicidal effect grade” value is listed as 5 (Herbicidal rate of 90% or more (almost completely withered)).
`CCCOc1ccc2c(-c3c(O)c(C)nn(C)c3=O)c(-c3ccccc3OC)sc2c1` [3-099]: the “O: lambsquarters, herbicidal effect grade” value is on record as 5 (Herbicidal rate of 90% or more (almost completely withered)).

In the next test the test system is barnyard grass. Put plainly: Test Example 5: herbicidal effect by foliage application, plastic box (Table 20, symbol H). The class given is in vivo, barnyard grass (Echinochloa crus-galli). Particulars: foliage application, 320 g/ha, three weeks after application. The method, boiled down:
as §2
With `COc1cc(F)ccc1-c1sc2cc(Cl)ccc2c1-c1c(O)c(C)nn(C)c1=O` [3-043], the “H: barnyard grass, herbicidal effect grade” value is 4 (Herbicidal rate of 70% or more and less than 90%).
The same measure, in the same setting: as for `CCCOc1ccc2c(-c3c(O)c(C)nn(C)c3=O)c(-c3ccccc3OC)sc2c1` [3-099], the figure is 5 (Herbicidal rate of 90% or more (almost completely withered)).

A further test relates to southern crabgrass. Put plainly: Test Example 4: herbicidal effect by soil treatment (Table 19, symbol F). Particulars: amount of applied herbicide 320 g/ha. The format is in vivo, southern crabgrass (Digitaria ciliaris). The method in brief:
as §1
As to `COc1cc(F)ccc1-c1sc2cc(Cl)ccc2c1-c1c(O)c(C)nn(C)c1=O` [3-043], the “F: southern crabgrass, herbicidal effect grade” value was 0 (Herbicidal rate of 5% or less (almost no effect)).
Still for that read-out and setting: the value for `CCCOc1ccc2c(-c3c(O)c(C)nn(C)c3=O)c(-c3ccccc3OC)sc2c1` [3-099] was 5 (Herbicidal rate of 90% or more (almost completely withered)).

For a further test, the system named is persian speedwell. Description: Test Example 4: herbicidal effect by soil treatment (Table 19, symbol R). The format is in vivo, Persian speedwell (Veronica persica). Particulars: amount of applied herbicide 320 g/ha. The method in brief: as §1
As for `COc1cc(F)ccc1-c1sc2cc(Cl)ccc2c1-c1c(O)c(C)nn(C)c1=O` [3-043], the “R: persian speedwell, herbicidal effect grade” value is 3 (Herbicidal rate of 40% or more and less than 70%).
For `CCCOc1ccc2c(-c3c(O)c(C)nn(C)c3=O)c(-c3ccccc3OC)sc2c1` [3-099], the “R: persian speedwell, herbicidal effect grade” value is 4 (Herbicidal rate of 70% or more and less than 90%).

The subject of a further test is late watergrass. Put plainly: Test Example 2: herbicidal activity, application during weed generation under submerged conditions (Table 17, symbol A). Particulars: AAH 320 g/ha; application during weed generation, submerged conditions. The class given is in vivo, late watergrass (Echinochloa oryzicola). The method, boiled down: as §3
For `COc1cc(F)ccc1-c1sc2cc(Cl)ccc2c1-c1c(O)c(C)nn(C)c1=O` [3-043], the “herbicidal effect rating, A: late watergrass” value is 3 (Herbicidal rate of 40% or more and less than 70%).
On the same count and under the same terms, the value for `CCCOc1ccc2c(-c3c(O)c(C)nn(C)c3=O)c(-c3ccccc3OC)sc2c1` [3-099] was 3 (Herbicidal rate of 40% or more and less than 70%).
